Columns and labels:
TNF-α = assay: Pro-inflammatory cytokine ELISA of colon tissue, TNF-α; type: in vivo, mouse; conditions: for TNF-α in the colon tissue: Day 7, FIG. 7B
Method: (§1) In order to evaluate the clinical symptoms-improving efficacy in comparison with those by clinical prescription drugs, inflammatory bowel disease was induced by 7-day or repeated administration of 3% or 2.5% DSS solution, and tofacitinib 10 mg/kg, 5-ASA 100 mg/kg or 200 mg/kg, prednisolone 1 mg/kg, and TDCA 2.5 mg/kg were administered one time a day from the start date of DSS administration. From the start date of DSS administration, TDCA 2.5 mg/kg was administered one time a day (QD), two times a day (BID), and three times a day (TID).
A colon was obtained from a mouse which had been subjected to an experiment by the same method as that described in <Example 2>, the peripheral colon was cut into 2 cm in length and the weight was recorded. Next, the colon was chopped into 1 mm pieces and frozen on ice, treated with 500 μl of cold DPBS containing protease inhibitor (Roche, 11836170001, Basel, Switzerland), and homogenized for 10 to 20 seconds using an electric homogenizer (IKA T10 Basic, Wilmington, SE, USA). The homogenate was centrifuged at 4° C. for 10 minutes at 12,000×g to obtain a supernatant. ELISA analysis was performed using the obtained supernatant, IL-6 DuoSet ELISA kit (R & D systems, USA), IL-1β DuoSet ELISA kit (R & D systems, USA), and TNF-α DuoSet ELISA kit (R & D systems, USA) according to the manufacturer's procedure to confirm the production of pro-inflammatory cytokines.
Specifically, female C57BL/6 mice were fed with a 2% DSS solution together with drinking water for 7 days from Day 0 of the experiment by the same method as that described in <Example 1>, DPBS or 5 mg/kg TDCA was administered to the mice by oral gavage from Day 1 of DSS administration or 2 days before DSS administration, and the body weight and DAI were measured daily. As a control, mice freely fed with drinking water were used. Next, the mice were sacrificed on Day 7 of the experiment by the same method as that described in <Example 3>, and the inflammatory cell and proinflammatory cytokine analysis was performed.

[1] = system: chronic inflammatory bowel disease model induced with 2.5% DSS; assay: Chronic inflammatory bowel disease model, repeated 2.5% DSS, comparison with clinical prescription drugs; type: in vivo, mouse
Method: as §1

Question: For `C[C@H](CCC(=O)NCCS(=O)(=O)O)[C@H]1CC[C@H]2[C@@H]3CC[C@@H]4C[C@H](O)CC[C@]4(C)[C@H]3C[C@H](O)[C@]12C` [TDCA, sodium taurodeoxycholic acid], which “concentration of TNF-α in the colon tissue, compared with clinical prescription drugs” value (TNF-α; 3% DSS 7 days, TDCA 2.5 mg/kg vs tofacitinib 10 mg/kg and 5-ASA 100 mg/kg) is on record?
Answer: Its value is “equivalent to those by tofacitinib 10 mg/kg and 5-ASA 100 mg/kg”.

Question: What about the “TNF-α in the colon tissue” value (TNF-α; DSS+TDCA group: 5 mg/kg TDCA from Day 1 of DSS) of the same compound?
Answer: The value was “decreased”.

Question: And the “TNF-α in the colon tissue” value (TNF-α; DSS+preTDCA group: 5 mg/kg TDCA from 2 days before DSS)?
Answer: The value was “decreased”.

Question: What about the “body weight change, compared with clinical prescription drugs” value ([1]; TDCA 2.5 mg/kg QD, BID and TID vs tofacitinib 10 mg/kg and 5-ASA 200 mg/kg, FIG. 11A) of the same compound?
Answer: The value was “effect equivalent to or higher than those by tofacitinib 10 mg/kg and 5-ASA 200 mg/kg”.

Question: What about the “mortality, compared with clinical prescription drugs” value ([1]; TDCA 2.5 mg/kg, FIG. 11B) of the same compound?
Answer: Its value is “effect equivalent to or higher than those by clinical prescription drugs”.

— patent publication US20210386761A1, “COMPOSITION FOR PREVENTING OR TREATING INFLAMMATORY BOWEL DISEASE, CONTAINING, AS ACTIVE INGREDIENT, TAURODEOXYCHOLIC ACID OR PHARMACEUTICALLY ACCEPTABLE SALT THEREOF” (SHAPERON INC., priority 2019, published 2021)
